From patent EP1731520A1, “Pyrrolo[2,3-d]pyrimidine derivatives which are antagonists of adenosine A1, A2A, and A3” (OSI Pharmaceuticals, Inc., priority 1999, dated 2001) come the findings set out here.

Chain of human A1 receptor subtype (P30542 whole entry): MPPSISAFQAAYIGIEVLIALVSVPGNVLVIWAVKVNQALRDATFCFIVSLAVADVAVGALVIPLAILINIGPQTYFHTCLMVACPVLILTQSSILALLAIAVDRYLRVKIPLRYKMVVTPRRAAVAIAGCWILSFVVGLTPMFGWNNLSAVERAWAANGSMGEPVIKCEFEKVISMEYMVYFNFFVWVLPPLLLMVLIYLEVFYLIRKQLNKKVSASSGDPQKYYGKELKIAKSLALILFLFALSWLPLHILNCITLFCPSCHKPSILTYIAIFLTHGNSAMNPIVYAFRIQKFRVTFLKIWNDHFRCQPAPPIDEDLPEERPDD

One assay has as its target human A1 receptor subtype (Homo sapiens, UniProt P30542). The note with it: Table 15, Adenosine A1 Receptor Selective Compounds.
In the case of `CNC(=O)NC1CCCCC1Nc1nc(-c2ccccc2)nc2[nH]c(C)c(C)c12` (stereo not drawn) [Compound 1500], the “Ki-A1 (selectivity versus other three subtypes)” value was “* (at least 10 times more selective than other three subtypes.)”. `CC(=O)NCCNc1nc(-c2ccccc2)nc2[nH]ccc12` [Compound 1501]: the “Ki-A1 (selectivity versus other three subtypes)” value is given as “* (at least 10 times more selective than other three subtypes.)”.

For the compound `CNC(=O)NCCNc1nc(-c2cccc(Cl)c2)nc2[nH]ccc12` [Compound 1502], the “Ki-A1 (selectivity versus other three subtypes)” value is given as “* (at least 10 times more selective than other three subtypes.)”.

In the case of `O[C@H]1CC[C@H](Nc2nc(-c3ccccc3)nc3[nH]c(CN4CCOCC4)cc23)CC1` [Compound 1503], the “Ki-A1 (selectivity versus other three subtypes)” value is “* (at least 10 times more selective than other three subtypes.)”. Still for that read-out and setting: next, `O[C@H]1CC[C@H](Nc2nc(-c3ccccc3)nc3[nH]c(CN4CCSCC4)cc23)CC1` [Compound 1504]: “* (at least 10 times more selective than other three subtypes.)”.

Still in this assay, the particulars now being: read-out: Al Binding Ki; Table 6, Effect of N6-Substituent.
The Ki is the equilibrium dissociation constant of an inhibitor or competing ligand from its target. Regarding `Cc1[nH]c2nc(-c3ccccc3)nc(NC3CCC(NS(C)(=O)=O)CC3)c2c1C` (stereo not drawn) [Compound 604], the inhibition constant (Ki) was greater than 10 nM. As for `Cc1[nH]c2nc(-c3ccccc3)nc(NC3CCC(OC(=O)c4ccccc4)CC3)c2c1C` (stereo not drawn) [Compound 611], the Ki was 786 nM. As for `Cc1[nH]c2nc(-c3ccccc3)nc(N[C@@H]3C[C@@H](O)[C@@H](O)C3)c2c1C` [Compound 616], the Ki was determined as 34.3 nM.

The same assay, now with this note: read-out: Al Binding Ki; Table 7, Effect of C2-Substituent.
`Cc1[nH]c2nc(C(C)C)nc(N[C@H]3CC[C@H](O)CC3)c2c1C` [Compound 708]: the Ki amounted to 2140 nM. On the same count and under the same terms, as for `Cc1[nH]c2nc(-c3ccccc3F)nc(N[C@H]3CC[C@H](O)CC3)c2c1C` [Compound 709], the figure is 48.7 nM.

The assay is the same for the next values; noted with them: saturation and competition radio ligand binding.
Turning to “1-[6-(4-Hydroxy-4-phenyl-piperidin-1-yl-methyl)-2-phenyl-7H-pyrrolo[2,3-d]pyrimidin-4-yl]-pyrrolidine-2-carboxylic acid amide [Compound 1505]”, the “A1 receptor binding affinity compared with reference compounds 1318 or 1319” value is listed as “equaled or surpassed”. Same read-out and setting: as for `NC(=O)[C@@H]1CCCN1c1nc(-c2ccccc2)nc2[nH]ccc12` [Compound 1506], the entry is “equaled or surpassed”; as for `COCc1cc2c(N3CCC[C@H]3C(N)=O)nc(-c3ccccc3)nc2[nH]1` [Compound 1507], “equaled or surpassed”. On the same count and under the same terms, as for `NC(=O)C1CC(O)CN1c1nc(-c2ccccc2)nc2[nH]ccc12` (stereo not drawn) [Compound 1508, 4-Hydroxy-1-(2-phenyl-7H-pyrrolo[2,3-d]pyrimidin-4-yl]-pyrrolidine-2-carboxylic acid amide], the entry is “equaled or surpassed”; as for `NC(=O)[C@@H]1CCCN1c1nc(-c2ccccc2)nc2[nH]c(CCC(=O)O)cc12` [Compound 1509, 3-[4-((S)-2-Carbamoyl-pyrrolodin-1-yl)-2-phenyl-7H-pyrrolo[2,3-d]pyrimidin-6-yl]-propionic acid], “equaled or surpassed”. For the compound `NC(=O)COCc1cc2c(N3CCC[C@H]3C(N)=O)nc(-c3ccccc3)nc2[nH]1` [Compound 1510], the “A1 receptor binding affinity compared with reference compounds 1318 or 1319” value is on record as “equaled or surpassed”. Still for that read-out and setting: next, `NC(=O)C1CCCN1c1nc(-c2ccccc2)nc2[nH]c(C(=O)O)cc12` (stereo not drawn) [Compound 1511, [4-(2-Carbamoylpyrrolidin-1-yl)-2-phenyl-7H-pyrrolo[2,3-d]pyrimidine-6-carboxylic acid]]: “equaled or surpassed”; `Cc1cc2c(N3CCC[C@H]3C(N)=O)nc(-c3ccccc3)nc2[nH]1` [Compound 1512, 1-(6-methyl-2-phenyl-7H-pyrrolo[2,3-d]pyrimidine-4-yl)-(S)-pyrrolidine-2-carboxylic acid amide]: “equaled or surpassed”.
